Reference: US8318146B1, “Ascarosides as nematode sex pheromones” (The United States of America, as represented by the …, priority 2008, dated 2012)

Tests used:
[1] = test system: adult male Caenorhabditis elegans; experiment: Caenorhabditis mating assay (male attraction, time spent in scoring region); type: in vivo; settings: for activity in the attraction assay: 0 to 10000 fmol range; for male attraction activity, each ascaroside tested individually at physiological concentrations: 0 to 10 fmol for ascr#3, 0 to 100 fmol for ascr#2; for male attraction when assayed individually: 10 fmol ascr#3, 100 fmol ascr#2; for shape of dose-response curve: 0.1 fmol to 10,000 fmol (FIG. 4); for male attraction activity at higher concentrations: above the physiological range
Protocol: Wild-type C. elegans var. N2 Bristol and males from the CB1490 him-5(e1490) mutant were utilized in bioassays. The him-5(e1490) mutant segregates XO male progeny by X chromosome nondisjunction during meiosis. All strains were maintained at 20° C. unless detailed otherwise.
Standard nematode growth medium plates (5 cm diameter) were used for assaying biological activity of the nematode conditioned water. The assay plates comprised of a thin lawn of an overnight grown E. coli OP50 culture with an approximate 0.25 cm gap between the bacterial lawn and the edge of the plate to prevent the nematodes from escaping. Plates were stored at room temperature (20° C.) for two days before being used in trials. Two spots (5 mm in diameter) were spotted 1.6 cm apart from each other on a template and stuck to the bottom of the assay plate. 0.8 μl of the control and the nematode metabolite were placed in the two circles and allowed to dry for approximately 30 seconds. To remove any bias, control and conditioned water spots were interchanged after every trial. Males and hermaphrodites were harvested daily at the fourth larval stage (L4) and stored at 20° C. overnight with 50-60 nematodes of the same sex per plate to be used as young adults the following day. Five nematodes were placed at approximately 1.0 cm away on each side (10 nematodes total) from the spots and allowed to acclimatize for 5 minutes. Trials were videotaped at 30 frames per second for 15 minutes using the Fire-i Unibrain software. For each sample, a minimum of 4-5 trials were conducted each day and each stage was tested on at least three different days.
Each time a nematode entered and left the scoring region it was scored as a nematode event. The time the nematode entered the scoring region and left the scoring region was recorded. Once inside the scoring region, the average time spent by each nematode was noted and the average time spent by the different nematode in the scoring region during the 15 minute interval (control and the conditioned water) were calculated.

[2] = test system: Male C. elegans; experiment: Reversal frequency of males on ascaroside agar plates (automated nematode tracker); type: in vivo, Caenorhabditis elegans
Protocol: Given the nature of the attraction assay, the exact concentration of the compounds tested in the scoring region is not well defined. […] A system used to track the sinusoidal movement of nematodes is disclosed in Cronin et al., 2005. BMC Genet. 6:5 and incorporated herein by reference.
For the tracker assays, standard nematode growth medium was prepared and added the different ascarosides to the required concentrations into the agar. Plates containing the ascarosides were then allowed to cool and stored at 20° C. overnight. Control plates were treated the same way except that instead of the ascaroside, an equivalent quantity of 100% ethanol was added to the agar. Assay plates were seeded with a thin lawn of an overnight grown E. coli OP50 culture and allowed to dry overnight. 10-15 L4 males were picked 14-16 hours before the experiment on E. coli OP50 seeded plates. For each assay, individual males were picked and placed on assay plates. After 5 minutes, males were assayed for 15 min using the automated tracker to get the different locomotion parameters. For each concentration of ascaroside, an equal number of males were tested on control plates. After the recordings, nematodes were processed using automated tracker software and the results were analyzed using in-house matlab scripts.

[3] = Stability of ascr#2 and ascr#3 in agar plates (LC-MS); type: physicochemical; settings: agar plates with 200 nM stored at room temperature for three months; extract in 1 ml methanol
Protocol: Agar plates (total volume: 20 ml) prepared from Nobel agar and S-media containing ascr#2 and ascr#3 at a concentration of 200 nM were stored at room temperature for three months and subsequently lyophilized. The residue was powdered using a mortar and extracted with ethanol. The extract was evaporated to dryness, redissolved in 1 ml of methanol, and analyzed via LC-MS, using an Agilent 1100 HPLC system equipped with a 10×250 mm Supelco 5μ ODS preparative column eluted at a flow rate of 3.4 ml/min, and a Micromass Quattro II triple-quadrupole mass spectrometer operated in positive-electrospray ionization mode. A solvent gradient was used starting with a solvent composition of 5% methanol and 95% water, which was maintained for three minutes and then progressed linearly to 100% methanol by 40 minutes, resulting in retention times of 21.3 min (ascr#3) and 25.6 min (ascr#2).

| Structure (SMILES) | activity in the attraction assay ([1]; single ascaroside) | male attraction activity, each ascaroside tested individually at physiological concentrations ([1]; FIG. 4) | male attraction when assayed individually [1] | shape of dose-response curve ([1]; single ascaroside) | male attraction activity at higher concentrations ([1]; single ascaroside) | time spent in spotted region relative to control region (maximum) ([1]; single ascaroside, FIG. 4) | increase of reversal frequency ([2]; ascaroside in agar, FIG. 6B) | concentration in the agar extract [3] | rank of male attraction response among single ascarosides ([1]; single ascaroside, FIG. 4) | lowest concentration that increases reversal frequency ([2]; ascaroside in agar, FIG. 6A) | male attractant concentration lower than required for dauer induction ([2]; comparison with dauer induction) |
| --- | --- | --- | --- | --- | --- | --- | --- | --- | --- | --- | --- |
| C[C@H](CCCCC(=O)O)O[C@@H]1O[C@@H](C)[C@H](O)C[C@H]1O [ASCR #1, 6R-(Tetrahydro-3′R,5′R-dihydroxy-6′S-methyl-2H-pyran-2′R-yloxy)-heptanoic acid] | not active | – | – | – | – | – | – | – | – | – | – |
| CC(=O)CC[C@@H](C)O[C@@H]1O[C@@H](C)[C@H](O)C[C@H]1O [ASCR #2, 5R-(Tetrahydro-3′R,5′R-dihydroxy-6′S-methyl-2H-pyran-2′R-yloxy)-2-hexanone] | – | not active | did not elicit significant male attraction | strongly biphasic activity profile | active | ~2.8 fold | only weak increases | 3.5 µM | – | – | – |
| C[C@H](CCCC/C=C/C(=O)O)O[C@@H]1O[C@@H](C)[C@H](O)C[C@H]1O [ASCR #3, 8R-(Tetrahydro-3′R,5′R-dihydroxy-6′S-methyl-2H-pyran-2′R-yloxy)-2E-nonenoic acid] | – | not active | did not elicit significant male attraction | strongly biphasic activity profile | active | approximately 6.6 fold | – | 3.2 µM | strongest response | 1 pM | more than 10.000 fold |
| CC(=O)CC[C@@H](C)O[C@@H]1O[C@@H](C)[C@H](O)C[C@H]1O[C@@H]1O[C@H](CO)[C@@H](O)[C@H](O)[C@H]1O [ASCR #4, 5R-(3′-O-[β-D-glucosyl]-tetrahydro-3′R,5′R-dihydroxy-6′S-methyl-2H-pyran-2′R-yloxy)-2-hexanone] | not active | – | – | – | – | – | – | – | – | – | – |
